Reference: paper PMC6021345 (Oncotarget, 2018)

Legend:
[1] = molecular target: T1, CES2 (Homo sapiens, UniProt O00748); assay: In vitro CES2 enzyme-based assay (4-NPA substrate); format: biochemical
T1 construct: purchased Sigma-Aldrich E0412
T1 sequence (O00748 27-559): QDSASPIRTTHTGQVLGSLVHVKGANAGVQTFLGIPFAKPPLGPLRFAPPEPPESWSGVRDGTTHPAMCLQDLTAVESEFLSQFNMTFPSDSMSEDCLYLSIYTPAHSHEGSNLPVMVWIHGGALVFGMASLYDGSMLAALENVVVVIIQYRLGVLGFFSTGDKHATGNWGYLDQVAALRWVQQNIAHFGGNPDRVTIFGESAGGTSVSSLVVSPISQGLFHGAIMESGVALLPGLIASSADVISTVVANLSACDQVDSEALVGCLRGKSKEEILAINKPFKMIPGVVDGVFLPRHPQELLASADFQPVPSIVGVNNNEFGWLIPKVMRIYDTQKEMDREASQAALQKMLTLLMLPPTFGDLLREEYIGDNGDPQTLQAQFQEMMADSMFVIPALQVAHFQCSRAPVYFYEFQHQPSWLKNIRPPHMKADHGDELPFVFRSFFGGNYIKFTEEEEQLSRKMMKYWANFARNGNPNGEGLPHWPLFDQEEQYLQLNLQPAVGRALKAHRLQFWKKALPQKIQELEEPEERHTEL
Procedure: (§1) The recombinant purified CES2 and CES1 enzymes, and 4-NPA were purchased from Sigma-Aldrich with product IDs E0412, E0162, and N8130, respectively. […] All compounds were dissolved in DMSO at 10mM. In the screening assay, the compounds were diluted in 50mM HEPES and the final compound concentration in the reaction system was adjusted to 50μM. […] The assays were conducted at 300μl total volume in 96-well plates. Reactions consisted of the following: 100μL 50mM HEPES with 20 units of enzyme, 10μL compound solution (various concentrations), 2μL 300mM 4-NAP, and 188μL 50mM HEPES, pH 7.4. The compound and 4-NAP solution were added into the plate first and then the reaction was initiated by the addition of enzyme solution. After 15 minutes incubation at 25°C, absorbance was measured using a microplate reader at 405nm in FLUOstar Omega Microplate Reader. The CES1/CES2 inhibitor compound bis-(4-nitrophenyl) phosphate (BNPP) was used as positive control in all the assays.

[2] = molecular target: T2, CES1 (Homo sapiens, UniProt P23141); assay: In vitro CES1 enzyme-based assay (4-NPA substrate); format: biochemical; settings: even at 300μM
T2 construct: purchased Sigma-Aldrich E0162
T2 sequence (P23141 18-567): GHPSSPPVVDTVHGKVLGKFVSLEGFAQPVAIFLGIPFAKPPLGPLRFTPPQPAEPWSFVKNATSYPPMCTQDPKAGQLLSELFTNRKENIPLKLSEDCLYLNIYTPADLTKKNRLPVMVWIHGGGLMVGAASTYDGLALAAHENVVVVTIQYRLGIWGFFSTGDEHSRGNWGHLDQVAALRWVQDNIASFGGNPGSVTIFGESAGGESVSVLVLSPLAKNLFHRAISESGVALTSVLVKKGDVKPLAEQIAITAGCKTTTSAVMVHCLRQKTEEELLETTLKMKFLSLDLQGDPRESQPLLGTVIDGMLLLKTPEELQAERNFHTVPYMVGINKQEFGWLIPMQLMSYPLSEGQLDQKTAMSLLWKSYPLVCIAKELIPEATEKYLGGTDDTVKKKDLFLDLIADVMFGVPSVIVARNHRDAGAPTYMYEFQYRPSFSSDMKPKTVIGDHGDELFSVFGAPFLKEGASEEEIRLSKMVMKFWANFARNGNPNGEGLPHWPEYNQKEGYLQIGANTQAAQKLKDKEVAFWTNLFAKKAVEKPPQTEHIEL
Procedure: as §1

[3] = tested on: murine CT-26 tumor-bearing immuno-competent mice; assay: CPT-11 induced diarrhea in CT-26 tumor-bearing mice; format: in vivo; settings: for mice that had to be euthanized: by day 12; for mice with rapid recovery in body weight: 5 days after cessation of CPT-11; for mice that never showed any signs of diarrhea: through end of study
Procedure: We tested the effect of Hst (20 and 100 mg/kg) on murine CT-26 tumor-bearing immuno-competent mice with CPT-11 (50 mg/kg, roughly equivalent to 5 mg/kg typical human CPT-11 dose) intraperitoneally injected daily from day 1-9. Hst was given from day 1-15 and 30 min before CPT-11 administration on day 1-9. Changes of stool character were recorded twice daily to determine the severity of diarrhea. Fecal staining of skin or lose watery stool was determined as diarrhea but not severe, and only the black sticky stool (bloody diarrhea) was determined as severe diarrhea.
(§2) CT-26 cell line was used to make the tumor bearing mouse model by s.c. injection of 0.02mL cells in PBS at 5×10^7 cells/mL into the posterior mid-dorsum. Tumor volumes were estimated by the formula π/6×a^2×b, where a is the short and b is the long axis. When tumor volume reached roughly 100mm^3 (~10 days after implantation, defined as day 1), mice were randomly separated into 5 groups, 1). CPT-11 only group, receiving CPT-11 50mg/kg + vehicle 2). CPT-11+Hst 20mg/kg, 3). CPT-11+Hst 100mg/kg, 4). Hst 100mg/kg only, and 5) vehicle control group. CPT-11 was administrated by i.p. injection from day 1 to day 9 while Hst were administrated by oral gavage from day 1 to the end of study. An equivalent dosage of saline or CMC were administrated by i.p injection and oral gavage as vehicle, respectively. Mice were examined daily for signs of diarrhea (fecal staining of skin, lose watery stool) and bloody diarrhea (black sticky stool), as well as tumor growth. After sacrifice, jejunum, ileum and colon samples were dissected. Tissues were formalin-fixed and paraffin embedded for histological examination using 4μm-thick, 100μm step serial sections stained with H&E. A histologic score to evaluate inflammation, epithelial changes and mucosa architecture for each slide was calculated as described previously. For immunohistochemical staining, sections were stained with antibodies against Ki67, β-catenin, F4/80, Ly-6B.2 and pSTAT3 (Tyr705) overnight at 4°C. Slides were then washed and stained with the appropriate secondary antibodies. Mounted slides were examined under Olympus BX61 upright microscopy (HMRI Advanced Cellular and Tissue Microscope Core Facility).

[4] = set-up: method as in PMID 10725311; settings: after i.v. dosing radiolabeled drug; cited from earlier work
[5] = set-up: method as in printed; settings: library annotation; ref not given; cited from earlier work
[6] = tested on: small intestinal CES; assay: Ex vivo small intestinal CES assay (microsomes) after oral Hst; format: in vivo, mice; settings: 20 mg/kg Hst oral, 4h after single dose, n=5
Procedure: (§3) Single oral dose of 135 mg Hst in healthy adult subjects was rapidly absorbed and the concentration in plasma observed 20 min after dosing and reached a peak in 4h.
(§4) Microsomes of the liver and small intestinal epithelium were prepared from animals with or without Hst treatment. Animals were killed by exsanguination at 4h after single oral dosing of Hst. Their liver and small intestines were removed immediately and cooled in cold physiological saline. Small intestine epithelium was scraped from the intestine with slide glass. Tissues were homogenized in 1.15% KCl on ice by a Teflon homogenizer, followed by centrifugation at 9,000×g for 10min at 4°C. The supernatant was re-centrifuged at 105,000×g for 60 min at 4°C, resulting in sedimentation of the microsome. The microsomal pellet was re-suspended in 1.15% KCl. To measure CES activity, microsomes (protein content: 1 mg/mL) were incubated with 4-NAP solution in phosphate-buffered saline at 37°C, and 50μL aliquots were sampled up to 20 min.

[7] = tested on: liver CES; assay: Ex vivo liver CES assay (microsomes) after oral Hst; format: in vivo, mice; settings: 20 mg/kg Hst oral
Procedure: as §3, §4

[8] = tested on: CT-26 tumor; assay: Tumor growth in CT-26 tumor-bearing mice; format: in vivo
Procedure: as §2, with “For immunohistochemical staining, sections were stained with antibodies against Ki67, β-catenin, F4/80, Ly-6B.2 and pSTAT3 (Tyr705) overnight at 4°C. Slides were then washed and stained with the appropriate secondary antibodies. Mounted slides were examined under Olympus BX61 upright microscopy (HMRI Advanced Cellular and Tissue Microscope Core Facility).” left out

[9] = tested on: different cancer cell lines including CT-26; assay: Cell viability analysis on cancer cell lines; format: cell-based; settings: Hst alone
Procedure: (§5) CT-26 (murine colon cancer), HCT-116 (human colon cancer), CRL-1739 (human stomach gastric cancer) and CRL-1682 (human pancreatic cancer) cell lines were purchased form ATCC. All cells were cultured in T-75 flasks (Falcon). All media were purchased from Life Technologies and supplemented with 10% fetal bovine serum (Sigma) and 1% penicillin-streptomycin (Fisher Scientific). CT-26 and CRL-1682 were cultured in RPMI-1640 medium. CRL-1739 and HCT-116 were cultured in DMEM medium. All cells were cultured in a 37° C, 5% CO2 incubator.

[10] = tested on: STAT3; assay: STAT3 Cignal Reporter Assay; format: cell-based; settings: HEK293 cells, Hst 24h, IL-6 100 ng/ml 90 min
Procedure: STAT3 transcription factor activity was measured using the Cignal STAT3 Reporter Assay Kit (Qiagen) according to the manufacturers’ instructions. HEK293 cells were transfected with the Renilla luciferase reporter plasmid. Twenty-four hours later, cells were treated with Hst for 24h, and were incubated with 100 ng/ml IL-6 for 90 min before lysed. Subsequently, Renilla luciferase activity was measured in a microplate reader. Relative transcription factor activity was calculated by dividing relative light units (RLU) of the STAT3-specific reporter and the negative control reporter.

[11] = tested on: p-STAT3 (Tyr705); assay: Western blot of IL-6 induced p-STAT3 (Tyr705) in cancer cell lines; format: cell-based; settings: various cancer cell lines, IL-6 100ng/ml 90 min
Procedure: as §5
RIPA buffer was purchased form Fisher Scientific. Xpert protease inhibitor cocktail solution 100X and Xpert phosphatase inhibitor cocktail solution 100X were purchased from GenDEPOT. 4–20% Mini-PROTEAN® TGX™ Gel and Trans-Blot® Turbo™ Mini Nitrocellulose Transfer Packs were purchased form Bio-Rad. Rabbit NF-κB and phospho-Stat3 (Tyr705) primary antibody, mouse β-Actin (8H10D10) primary antibody, and anti-mouse IgG HRP conjugated, anti-rabbit IgG HRP conjugated secondary antibody were purchased from Cell Signaling Technology.

[12] = tested on: p-STAT3; assay: Immunohistochemistry of p-STAT3 in mouse tumors; format: in vivo, mice; settings: CPT-11 + Hst
Procedure: as §2, with “For immunohistochemical staining, sections were stained with antibodies against Ki67, β-catenin, F4/80, Ly-6B.2 and pSTAT3 (Tyr705) overnight at 4°C. Slides were then washed and stained with the appropriate secondary antibodies. Mounted slides were examined under Olympus BX61 upright microscopy (HMRI Advanced Cellular and Tissue Microscope Core Facility).” left out

[13] = tested on: intestinal inflammation; assay: Intestinal inflammation in CPT-11 treated mice; format: in vivo
Procedure: as §2, with “For immunohistochemical staining, sections were stained with antibodies against Ki67, β-catenin, F4/80, Ly-6B.2 and pSTAT3 (Tyr705) overnight at 4°C. Slides were then washed and stained with the appropriate secondary antibodies. Mounted slides were examined under Olympus BX61 upright microscopy (HMRI Advanced Cellular and Tissue Microscope Core Facility).” left out

[14] = single oral dose of 135 mg Hst, healthy adult subjects, cited from earlier work
[15] = set-up: method as in printed; settings: ref not given; cited from earlier work
[16] = set-up: method as in printed; settings: high dose loperamide; ref not given; cited from earlier work

Compound: O=C(/C=C/c1ccccc1)c1ccc(O)cc1O [2’, 4’-dihydroxychalcone]
- selectivity for CES2 (over CES1) ([1]; CES2 vs CES1): > 100 fold
- IC50 ([1]; recombinant CES2, 4-NPA, 15 min, 25°C): 1660 ± 690 nM
- CES1 inhibition [2]: no significant CES1 inhibition

Compound: CCc1c2c(nc3ccc(OC(=O)N4CCC(N5CCCCC5)CC4)cc13)-c1cc3c(c(=O)n1C2)COC(=O)[C@]3(O)CC [CPT-11, irinotecan]
- mice that had to be euthanized ([3]; CPT-11 only group): all
- mice that developed some degree of diarrhea ([3]; mouse, in vivo, 15 day): 100%
- fraction found unchanged in human bile [4]: 30%

Compound: CC1(C)CCC2=C(O1)c1ccccc1C(=O)C2=O [compound 1004, beta-Lapachone]
- solubility remark [5]: poorly soluble, anti-tumor at mM level, combination and radiosensitizing activity

Compound: COc1ccc([C@@H]2CC(=O)c3c(O)cc(O)cc3O2)cc1O [hesperetin]
- CES1 inhibition [2]: no significant CES1 inhibition
- small intestinal CES activity [6]: 2.28±1.42 nmol/min/g protein
- reduction of small intestinal CES activity ([6]; vs control): 56%
- liver CES activity ([7]; 4h after single dose, n=5): 8.89±0.74 nmol/min/g protein
- change of liver CES activity ([7]; vs control): did not have an obvious change
- mice with severe diarrhea ([3]; CPT-11 + Hst 20 mg/kg oral, day 11): 2 out of 10
- mice with rapid recovery in body weight ([3]; CPT-11 + Hst 20 mg/kg): 20%
- mice that had to be euthanized ([3]; CPT-11 + Hst 20 mg/kg): 40%
- body weight lost on average ([3]; CPT-11 + Hst 20 mg/kg, day 11): 20%
- mice that never showed any signs of diarrhea ([3]; CPT-11 + Hst 20 mg/kg): 20%
- mice with severe diarrhea ([3]; CPT-11 + Hst 100 mg/kg oral, until day 12): 2 out of 10
- mice with rapid recovery in body weight ([3]; CPT-11 + Hst 100 mg/kg): 20%
- mice that had to be euthanized ([3]; CPT-11 + Hst 100 mg/kg): 20%
- body weight lost on average ([3]; CPT-11 + Hst 100 mg/kg, day 11): 17%
- mice that never showed any signs of diarrhea ([3]; CPT-11 + Hst 100 mg/kg): 30%
- severe diarrhea prohibited ([3]; oral Hst, CPT-11 administered tumor-bearing mice): 80%
- effect on in vivo antitumor activity of CPT-11 ([8]; Hst 20 and 100 mg/kg + CPT-11, starting 5-6 days after Hst treatment): enhanced the in vivo antitumor activity of CPT-11
- tumor growth, Hst alone ([8]; Hst alone 100 mg/kg): mild inhibition on tumor growth
- cytotoxicity in vitro [9]: did not show any potent cytotoxicity effects
- concentration inhibiting IL-6 induced STAT3 reporter activity [10]: 20 to 100 µM
- IL-6 induced p-STAT3 (Tyr705) expression [11]: significant down-regulation
- p-STAT3 expression in the tumors [12]: remarkably suppressed
- infiltration of inflammatory cells (neutrophils, macrophages) and cytokine release (TNF-α, IL-6) ([13]; dose dependent): blocked
- tissue expression of NF-κB ([13]; mouse small intestine): significantly down-regulated
- time after dosing at which concentration in plasma was observed [14]: 20 min
- time to peak plasma concentration [14]: 4 h
- Cmax ([14]; read-out: mean peak plasma concentration (Cmax)): 2730 ± 1350 nM

Compound: COc1ccc([C@@H]2CC(=O)c3c(O)cc(O[C@@H]4O[C@H](CO[C@@H]5O[C@@H](C)[C@H](O)[C@@H](O)[C@H]5O)[C@@H](O)[C@H](O)[C@H]4O)cc3O2)cc1O [hesperidin]
- fraction metabolized in cells to generate Hst [15]: 99%

Compound: CN(C)C(=O)C(CCN1CCC(O)(c2ccc(Cl)cc2)CC1)(c1ccccc1)c1ccccc1 [loperamide]
- incidence of grade 3-4 diarrheas [16]: 28-40 % of treated patients
